Assays:
Assay type in all cases: physicochemical
[1] = Stability test on humidity
Description: (§1) In the following examples and experimental examples, the high performance liquid chromatography (HPLC) analyses were carried out under the following conditions: • Analytical column: C18, 4.6×250 mm, 5 μm • Mobile phase: buffer solution/acetonitrile=40/60 (v/v) • Buffer solution: ammonium formate (0.657 g) was taken and then added to a 1 L volumetric flask. Water was added thereto to the mark so as to dissolve ammonium formate and then the pH of the resulting solution was adjusted to pH 5.5±0.2 with a diluted formic acid. • Wavelength: 254 nm • Column temperature: 30° C. • Flow rate: 1.0 mL/min. • Injection volume: 10 μL
(§2) The X-ray powder diffraction (XRPD) analyses were carried out with the PANalytical's X-pert Pro X-ray powder diffractometer. The measurements at the angles ranging from 3 to 80°2θ values were performed at a scanning rate of 3° per second, using CuKα1 radiation (λα1=1.54060 Å) produced at the conditions of 40 mA and 40 kV.
The crystalline form A of the compound of Formula 1 obtained in Example 1 and the amorphous form of the compound of Formula 1 obtained in Preparation Example were stored at the humid condition (25° C., 98% RH) for 2 weeks, so as to evaluate the stabilities thereof.

[2] = Thermal stability test; settings: 100° C.
Description: as §1, §2
The crystalline form A of the compound of Formula 1 obtained in Example 1 and the amorphous form of the compound of Formula 1 obtained in Preparation Example were stored at the heat-condition (100° C.) for 2 weeks, so as to evaluate the stabilities thereof.

[3] = Accelerated stability test
Description: as §1, §2
The crystalline form A of the compound of Formula 1 obtained in Example 1 and the amorphous form of the compound of Formula 1 obtained in Preparation Example were stored at the accelerated condition (40° C., 75% RH) for 2 weeks, so as to evaluate the stabilities thereof.

Row | Compound | Water contents ([1]; 25° C., 98% RH, 1 week) [%] | Purity (as an anhydrous form) ([1]; 25° C., 98% RH, 2 weeks) [%] | Water contents ([1]; 25° C., 98% RH, 2 weeks) [%] | Water contents ([1]; 25° C., 98% RH, 1 day) [%] | Water contents ([1]; 25° C., 98% RH, 2 days) [%] | Purity (as an anhydrous form) ([1]; 25° C., 98% RH, Initial) [%] | Water contents ([1]; 25° C., 98% RH, Initial) [%] | enantiomer during the test period ([1]; 25° C., 98% RH, during 2 weeks) | Purity (as an anhydrous form) ([2]; 2 weeks) [%] | Water contents ([2]; 2 weeks) [%] | Purity (as an anhydrous form) ([2]; Initial) [%] | Water contents ([2]; Initial) [%] | change in the appearance ([2]; during 2 weeks) | enantiomer during the test period ([2]; during 2 weeks) | Water contents ([3]; 40° C., 75% RH, 1 week) [%] | Purity (as an anhydrous form) ([3]; 40° C., 75% RH, 2 weeks) [%] | Water contents ([3]; 40° C., 75% RH, 2 weeks) [%] | Water contents ([3]; 40° C., 75% RH, 1 day) [%] | Water contents ([3]; 40° C., 75% RH, 2 days) [%] | Purity (as an anhydrous form) ([3]; 40° C., 75% RH, Initial) [%] | also measured
1 | COC(OC)[C@]1(C)Oc2ccc(N)cc2[C@H](N(Cc2ncc[nH]2)c2ccc(Cl)cc2)[C@H]1O [amorphous form of the compound of Formula 1] [(2R,3R,4S)-6-amino-4-[N-(4-chlorophenyl)-N-(1H-imidazol-2-ylmethyl)amino]-3-hydroxy-2-methyl-2-dimethoxymethyl-3,4-dihydro-2H-1-benzopyran] | 3.90 | 96.55 | 3.58 | 3.20 | 3.60 | 96.96 | 1.05 | no enantiomer was detected | 92.34 | 0.34 | 96.96 | 1.05 | changed to brown color from the first day | no enantiomer was detected | 2.52 | 96.72 | 2.60 | 2.30 | 2.64 | 96.96 | water contents over the storing time ([1]; 25° C., 98% RH, during 2 weeks): up to 3.90%; hygroscopicity ([1]; humid condition (25° C., 98% RH)): very high hygroscopicity; Water contents ([3]; 40° C., 75% RH, Initial): 1.05%; water contents over the storing time ([3]; 40° C., 75% RH, during 2 weeks): up to 2.64%; hygroscopicity ([3]; accelerated condition (40° C., 75% RH)): very high hygroscopicity; Water contents ([3]; accelerated condition, in 1 day): 2.30 wt/wt %
2 | COC(OC)[C@]1(C)Oc2ccc(N)cc2[C@H](N(Cc2ncc[nH]2)c2ccc(Cl)cc2)[C@H]1O [crystalline form A of the compound of Formula 1] [(2R,3R,4S)-6-amino-4-[N-(4-chlorophenyl)-N-(1H-imidazol-2-ylmethyl)amino]-3-hydroxy-2-methyl-2-dimethoxymethyl-3,4-dihydro-2H-1-benzopyran] | 0.29 | 99.32 | 0.27 | 0.21 | 0.24 | 99.43 | 0.16 | no enantiomer was detected | 99.25 | 0.11 | 99.43 | 0.16 | changed to pale yellow color from the first week | no enantiomer was detected | 0.17 | 99.34 | 0.18 | 0.18 | 0.18 | 99.43 | XRPD analyses, crystalline form maintained ([1]; 25° C., 98% RH, during 2 weeks): the same crystalline form A was maintained; change in the appearance ([1]; 25° C., 98% RH, during 2 weeks): without any change in the appearance; XRPD analyses, crystalline form maintained ([2]; during 2 weeks): the same crystalline form A was maintained; Water contents ([3]; 40° C., 75% RH, Initial): 0.16%; XRPD analyses, crystalline form maintained ([3]; 40° C., 75% RH, during 2 weeks): the same crystalline form A was maintained; change in the appearance ([3]; 40° C., 75% RH, during 2 weeks): without any change in the appearance; enantiomer during the test period ([3]; 40° C., 75% RH, during 2 weeks): no enantiomer was detected

Source: patent US20190248768A1, “METHOD FOR PURIFYING BENZOPYRAN DERIVATIVE, CRYSTAL FORM THEREOF, AND METHOD FOR PREPARING CRYSTAL FORM” (priority 2015, published 2019)
